# Data from patent publication US20240140947A1, “COMPOUND FOR THE TREATMENT OF CANCER” (priority 2022, published 2024).
# Read-outs that look alike come from different tables or passages of the source.
# Columns and labels:
# [1] = system: T47D parental; assay: Cell proliferation assay (CYQUANT, 7 days), T47D parental; assay type: cell-based; conditions: Homo sapiens, 168 h, read-out: IC50 ± SEM, proliferation inhibition
# Method: (§1) Cellular CDK activity of Compound 1 and PF-06873600 were assessed in human CCNE1-amplified ovarian cancer cell line model OVCAR3 and human ER+ breast cancer cell line model MCF7 cells. […] OVCAR3 cells were treated overnight with 1 mM hydroxyurea to enrich for G1/S phase cells prior to treatment with inhibitors. Functional effects were measured in a 7-day anti-proliferation assay in one human ovarian cancer (OVCAR3), two human ER+ breast cancer (MCF7 and T47D) and three human non-small cell lung cancer (NCIH2087, NCIH358 and A549) cell line models.
# (§2) OVCAR3, MCF7, T47D, HCC1428, NCIH2087, NCIH358 or A549cells were seeded 1-3000 cells/well in 96-well plates in growth media containing 10% FBS and cultured overnight at 37° C. 5% CO2. The following day, compounds were serially diluted from a 10 mM top dose for an 11-point 3-fold dilution curve in DMSO. […] CYQUANT Direct Cell Proliferation Assay (Molecular Probes, Eugene, OR) was then performed following manufacturer recommendations to determine the relative viable cell numbers on the Perkin Elmer Envision 2104 Multi Label Reader at 508 nm excitation and 527 nm emission wavelengths. IC50 values were calculated by concentration-response curve fitting utilizing a four-parameter analytical method using GraphPad Prism software.
# [2] = Human blood-to-plasma partition ratio (BPR); assay type: in vitro ADME; parameters: dose or concentration left out as unconfirmed; conditions: fresh whole blood, 37° C.
# Method: Compound 1 has been evaluated according to methods well known in the art, for its ability to partition between human plasma and blood. Based on the observed partitioning and plasma protein binding, the blood binding was estimated based on human blood unbound fraction (fub)=human plasma unbound fraction (fup)/human blood-to-plasma partition ratio (BPR). […] At the end of the incubations, blood and plasma samples were matrix-matched and analyzed by LC-MS/MS. BPR was calculated by dividing the blood and plasma measure peak areas.
# [3] = system: A549; assay: Cell proliferation assay (CYQUANT, 7 days), A549; assay type: cell-based; conditions: Homo sapiens, read-out: IC50 ± SEM, proliferation inhibition
# Method: as §1, §2
# [4] = Rat i.v. pharmacokinetic study; assay type: in vivo
# Method: Rat PK studies were done at Pfizer (Groton, CT) or BioDuro Pharmaceutical Product Development Inc. (Shanghai, PRC); Jugular vein-cannulated male Wistar-Hannover rats were purchased from Charles River Laboratories, Inc. (Wilmington, MA) or Vital River (Beijing, China) and were typically 7-10 weeks of age at the time of dosing. During the pharmacokinetic studies all animals were housed individually. Access to food and water was provided ad libitum. Compounds were administered i.v. via the tail vein (n=2 or 3), dosed as a 1 mg/ml solution using standard compatible excipients at 1 mL/kg for a resulting dose of […]. Serial blood samples were collected via the jugular vein cannula at predetermined timepoints after dosing. Animals were monitored for pain or distress throughout the study, with at least daily monitoring during normal husbandry prior to study start. At the completion of the study, animals were euthanized by overdose of inhaled anesthesia followed by exsanguination. […] Plasma samples from the animal PK studies were processed using protein precipitation with acetonitrile: methanol (1:1) containing internal standard verapamil followed by quantitation by LC-MS/MS against a standard curve prepared in blank plasma. Pharmacokinetic parameters were calculated using noncompartmental analysis (Watson v.7.5, Thermo Scientific).
# [5] = system: palbociclib resistant (PalboR) derivatives of MCF7, T47D, and HCC1428; assay: Cell proliferation assay, palbociclib resistant derivatives (range over lines); assay type: cell-based; conditions: Homo sapiens, read-out: anti-proliferation IC50 values, range over cell lines
# Method: (§3) OVCAR3, MCF7, T47D, HCC1428, NCIH2087, NCIH358 or A549cells were seeded 1-3000 cells/well in 96-well plates in growth media containing 10% FBS and cultured overnight at 37° C. 5% CO2. The following day, compounds were serially diluted from a 10 mM top dose for an 11-point 3-fold dilution curve in DMSO. Compound 1 and PF-06873600 were intermediately diluted 1:200 into growth media prior to diluting 1:5 on cells for final concentration 10 μM to 0.1 nM in 0.1% DMSO on cells. Cells were incubated at 37° C. 5% CO2 for 7 days. CYQUANT Direct Cell Proliferation Assay (Molecular Probes, Eugene, OR) was then performed following manufacturer recommendations to determine the relative viable cell numbers on the Perkin Elmer Envision 2104 Multi Label Reader at 508 nm excitation and 527 nm emission wavelengths. IC50 values were calculated by concentration-response curve fitting utilizing a four-parameter analytical method using GraphPad Prism software.
# (§4) The effect of Compound 1 on cell proliferation was assessed in multiple ER+ breast cancer cell lines, including parental and palbociclib resistant cell lines.
# Similar results were shown with NCIH2087, NCIH358, and A549 NSCLC cell lines ([…].4).
# [6] = Human hepatocyte stability; assay type: in vitro ADME; conditions: hepatocytes, 0.5 million cells/mL, 37° C., 4 hours, read-out: CLint HHEP: CLint in human hepatocytes (in vitro)
# Method: At various time points, samples were taken and analyzed by LC-MS/MS. CLint HHEP was calculated based on loss of parent compound over time using equations discussed in “A novel relay method for determining low-clearance values,” Drug Metab Dispos., 2012; 40(9):1860-5.
# [7] = Preliminary assessment of metabolism (hepatocytes, human liver microsomes, plasma after oral dosing); assay type: in vitro ADME, rat, rabbit; conditions: hepatocytes of six species, plasma from monkey, dog and mouse
# Method: A preliminary assessment of the metabolism of Compound 1 was conducted using mouse, rat, rabbit, dog, monkey and human hepatocytes; human liver microsomes; plasma from monkey, dog and mouse studies following oral dosing. The primary metabolic pathway of Compound 1 was oxidation.
# [8] = system: HCC1428 PalboR; assay: Cell proliferation assay (CYQUANT, 7 days), HCC1428 PalboR; assay type: cell-based; conditions: Homo sapiens, read-out: IC50 ± SEM, proliferation inhibition
# Method: as §3, §4
# [9] = biological target: T1, CDK4/Cyclin D1 (Homo sapiens, UniProt P11802); assay: CDK4/Cyclin D1 mobility shift assay; assay type: biochemical; conditions: geometric mean, 3.5 mM ATP
# T1 construct: 2007 E1/2008+PO4
# Method: The mobility shift assay electrophoretically separates the fluorescently labeled peptides (substrate and phosphorylated product) following the kinase reaction. Both substrate and product are measured and the ratio of these values is used to generate % Conversion of substrate to product by the LabChip EZ Reader.
# K, determinations were made from a plot of the fractional velocity as a function of inhibitor concentration fit to the Morrison equation with the enzyme concentration as a variable.
# [10] = Observed human half-life; assay type: in vivo
# T1 sequence (P11802 whole entry): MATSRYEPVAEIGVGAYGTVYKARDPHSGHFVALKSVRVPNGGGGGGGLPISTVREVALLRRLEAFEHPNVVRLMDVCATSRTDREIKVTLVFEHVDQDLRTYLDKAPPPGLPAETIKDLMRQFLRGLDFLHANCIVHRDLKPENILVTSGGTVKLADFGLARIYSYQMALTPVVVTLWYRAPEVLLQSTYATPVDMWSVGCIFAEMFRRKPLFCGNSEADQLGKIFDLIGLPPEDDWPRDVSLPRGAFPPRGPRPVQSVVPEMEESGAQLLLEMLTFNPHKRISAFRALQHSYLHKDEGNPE
# T1 sequence (P24385 whole entry partner): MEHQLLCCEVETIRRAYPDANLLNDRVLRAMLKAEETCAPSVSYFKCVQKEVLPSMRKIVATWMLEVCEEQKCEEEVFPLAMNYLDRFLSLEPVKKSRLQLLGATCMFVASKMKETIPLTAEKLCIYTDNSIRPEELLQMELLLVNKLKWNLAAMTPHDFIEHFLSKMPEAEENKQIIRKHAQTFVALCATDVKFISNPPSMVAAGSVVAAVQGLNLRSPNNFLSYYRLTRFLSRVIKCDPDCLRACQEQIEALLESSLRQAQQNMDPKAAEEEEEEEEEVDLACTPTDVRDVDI
SMILES,"IC50 ([1]; T47D parental, 7 days, mean) [µM]",blood plasma ratio at 1 h [2],"IC50 ([3]; 168 h, A549, 7 days, mean) [µM]",Rat Vdss unbound: (Rat plasma Vdss/rat plasma fu) [4] [L/kg],"Vd ([4]; rat, plasma, iv, 2 mg/kg, male Wistar-Hannover rats, read-out: Rat Vdss) [L/kg]",IC50 [5] [µM],hepatocyte CLint at 1 μM [6] [µL/min/1e6 cells],primary metabolic pathway [7],"IC50 ([8]; 168 h, HCC1428 PalboR, 7 days, mean) [µM]",Ki [9] [µM],observed human t1/2 [10] [h],"half-life ([10]; in vivo, read-out: observed human t1/2 (converted)) [h]",IC50 ([1]; T47D) [µM],"IC50 ([3]; A549, 168 h) [µM]","IC50 ([8]; HCC1428, 168 h) [µM]"
"C[C@@]1(O)CCC[C@H]1n1c(=O)c(CC(F)F)cc2cnc(NC3CCN(S(N)(=O)=O)CC3)nc21 [Compound 1, 4-({6-(2,2-difluoroethyl)-8-[(1R,2R)-2-hydroxy-2-methylcyclopentyl]-7-oxo-7,8-dihydropyrido[2,3-d]pyrimidin-2-yl}amino)piperidine-1-sulfonamide]",0.0176 ± 0.0025,79,0.121 ± 0.0101,10.8,1.5,0.0373 to 0.0657,~2,oxidation,0.0614 ± 0.0049,0.00079,,,,,
"C[C@@]1(O)CCC[C@H]1n1c(=O)c(C(F)F)cc2cnc(NC3CCN(S(C)(=O)=O)CC3)nc21 [Compound 2, reference compound]",,,,,,,~2,,,,~3,3,0.0706 ± 0.0141,0.189,0.269 ± 0.0639
